Experimental data published in patent US20040110769A1, “Farnesyl protein transferase inhibitor combinations with antiestrogen agents” (priority 2003, published 2004).
“And” between values parts separate entries of the source, which are not always exact repeats. Identical values can stand only once.

Tested on: MCF7 human breast carcinoma cells
Assay: Anti-tumor activity in established MCF-7 human breast tumor xenografts in nude mice
Format: in vivo
Conditions: MCF-7 xenograft in female nude mice, individual animals showing regression
Procedure: A combination of a farnesyl transferase inhibitor, namely the compound identified as Compound 75 above (R115777), and an anti-estrogen agent, namely tamoxifen (TMX), was tested for anti-tumor activity in comparison with the activity of the individual components of the combination, as described below.
Female Nude-Homo NCRNU non-ovarectimized mice 8 weeks of age were fed ad libitum water and an irradiated standard rodent diet. Mice were housed in stable microisolators on a 12 hour light cycle at 21-22° C. and 40-60% humidity.
Mice were inoculated subcutaneously with 1×10^7 MCF7 human breast carcinoma cells in the flank. Tumors were monitored initially twice a week and then daily as neoplasms reached the desired size, approximately 100 mg. When the carcinomas reached a size between 62-144 mg in calculated tumor weight, the animals were pair matched into the various treatment groups (group mean tumor weights ranged from 83-85 mg).
Estimated tumor weight was calculated using the formula: [formula] […]
The tumor growth inhibition (TGI) endpoint was used in this study to assess the efficacy of the various treatments. The tumor burden endpoint was set at 1.0 g as measured by calliper. TGI values were determined on the last day of the study (Day 5), when all mice were under test, except those that had expired from treatment-related or procedural causes. […]

Compound	Regression in Individual Animals (magnitude of tumor regression expressed as % reduction from pretreatment tumor size) (R115777 100 mg/kg, orally qd to end)	Regression in Individual Animals (magnitude of tumor regression expressed as % reduction from pretreatment tumor size) (TMX 1 mg/kg, s.c.)
Cn1cncc1C(N)(c1ccc(Cl)cc1)c1ccc2c(c1)c(-c1cccc(Cl)c1)cc(=O)n2C (single isomer, unassigned; (+)) [Compound R115777, (+)-6-[amino(4-chlorophenyl)(1-methyl-1H-imidazol-5-yl)methyl]-4-(3-chlorophenyl)-1-methyl-2(1H)-quinolinone]	93% and 100%	–
CC/C(=C(\c1ccccc1)c1ccc(OCCN(C)C)cc1)c1ccccc1 [TMX, tamoxifen]	–	10% and 78% and 94% and 44% and 59% and 31%
